Test results reported in patent US9417241B2, “5, 10, 15, 20-tetrakis (carboxyphenyl) porphine (TCPP) and kit for use with detecting cancer” (bioAffinity Technologies, Inc., priority 2000, dated 2016).

Columns and labels:
[1] = Maximum solubility of TCPP in saline or blood; type: physicochemical
[2] = test system: sputum cells (dysplastic, pre-cancerous and cancerous cells); assay: Glass slide assay for detection of pre-cancerous and cancerous cells with TCPP (fluorescence microscopy of sputum monolayer slides vs PAP-stain cytomorphology); type: cell-based, human

## O=C(O)c1ccc(-c2c3nc(c(-c4ccc(C(=O)O)cc4)c4ccc([nH]4)c(-c4ccc(C(=O)O)cc4)c4nc(c(-c5ccc(C(=O)O)cc5)c5ccc2[nH]5)C=C4)C=C3)cc1 [TCPP]
[1]
  Maximum solubility in saline or blood: about 100 μg/mL
[2]; 1 = Large nucleus or nuclei, low to medium fluorescence, Adenicarcinoma, squamous cell and small cell carcinoma (n = 10)
  Number of Samples with Cells having Numerical Description by TCPP Fluorescence Microscopy/Number of Samples with Cell Description by Cytmorphology: 6/10
[2]; 1 = Large nucleus or nuclei, low to medium fluorescence, Carcinoma in situ (n = 11)
  Number of Samples with Cells having Numerical Description by TCPP Fluorescence Microscopy/Number of Samples with Cell Description by Cytmorphology: 10/11
[2]; 1 = Large nucleus or nuclei, low to medium fluorescence, Mild dysplasia (n = 12)
  Number of Samples with Cells having Numerical Description by TCPP Fluorescence Microscopy/Number of Samples with Cell Description by Cytmorphology: 12/12
[2]; 1 = Large nucleus or nuclei, low to medium fluorescence, Moderate dysplasia (n = 9)
  Number of Samples with Cells having Numerical Description by TCPP Fluorescence Microscopy/Number of Samples with Cell Description by Cytmorphology: 9/9
[2]; 1 = Large nucleus or nuclei, low to medium fluorescence, Negative or metaplastic (n = 10)
  Number of Samples with Cells having Numerical Description by TCPP Fluorescence Microscopy/Number of Samples with Cell Description by Cytmorphology: 3/10
[2]; 1 = Large nucleus or nuclei, low to medium fluorescence, Severe dysplasia (n = 8)
  Number of Samples with Cells having Numerical Description by TCPP Fluorescence Microscopy/Number of Samples with Cell Description by Cytmorphology: 7/8
[2]; 2 = Symmetrical binuclear cells, medium fluorescence, Adenicarcinoma, squamous cell and small cell carcinoma (n = 10)
  Number of Samples with Cells having Numerical Description by TCPP Fluorescence Microscopy/Number of Samples with Cell Description by Cytmorphology: 2/10
[2]; 2 = Symmetrical binuclear cells, medium fluorescence, Carcinoma in situ (n = 11)
  Number of Samples with Cells having Numerical Description by TCPP Fluorescence Microscopy/Number of Samples with Cell Description by Cytmorphology: 3/11
[2]; 2 = Symmetrical binuclear cells, medium fluorescence, Mild dysplasia (n = 12)
  Number of Samples with Cells having Numerical Description by TCPP Fluorescence Microscopy/Number of Samples with Cell Description by Cytmorphology: 5/12
[2]; 2 = Symmetrical binuclear cells, medium fluorescence, Moderate dysplasia (n = 9)
  Number of Samples with Cells having Numerical Description by TCPP Fluorescence Microscopy/Number of Samples with Cell Description by Cytmorphology: 5/9
[2]; 2 = Symmetrical binuclear cells, medium fluorescence, Negative or metaplastic (n = 10)
  Number of Samples with Cells having Numerical Description by TCPP Fluorescence Microscopy/Number of Samples with Cell Description by Cytmorphology: 0/10
[2]; 2 = Symmetrical binuclear cells, medium fluorescence, Severe dysplasia (n = 8)
  Number of Samples with Cells having Numerical Description by TCPP Fluorescence Microscopy/Number of Samples with Cell Description by Cytmorphology: 3/8
[2]; 3 = Small oval cells, medium to high fluorescence, Adenicarcinoma, squamous cell and small cell carcinoma (n = 10)
  Number of Samples with Cells having Numerical Description by TCPP Fluorescence Microscopy/Number of Samples with Cell Description by Cytmorphology: 6/10
[2]; 3 = Small oval cells, medium to high fluorescence, Carcinoma in situ (n = 11)
  Number of Samples with Cells having Numerical Description by TCPP Fluorescence Microscopy/Number of Samples with Cell Description by Cytmorphology: 6/11
[2]; 3 = Small oval cells, medium to high fluorescence, Mild dysplasia (n = 12)
  Number of Samples with Cells having Numerical Description by TCPP Fluorescence Microscopy/Number of Samples with Cell Description by Cytmorphology: 4/12
[2]; 3 = Small oval cells, medium to high fluorescence, Moderate dysplasia (n = 9)
  Number of Samples with Cells having Numerical Description by TCPP Fluorescence Microscopy/Number of Samples with Cell Description by Cytmorphology: 4/9
[2]; 3 = Small oval cells, medium to high fluorescence, Negative or metaplastic (n = 10)
  Number of Samples with Cells having Numerical Description by TCPP Fluorescence Microscopy/Number of Samples with Cell Description by Cytmorphology: 0/10
[2]; 3 = Small oval cells, medium to high fluorescence, Severe dysplasia (n = 8)
  Number of Samples with Cells having Numerical Description by TCPP Fluorescence Microscopy/Number of Samples with Cell Description by Cytmorphology: 2/8
[2]; 4 = Small round cells, low fluorescence, Adenicarcinoma, squamous cell and small cell carcinoma (n = 10)
  Number of Samples with Cells having Numerical Description by TCPP Fluorescence Microscopy/Number of Samples with Cell Description by Cytmorphology: 2/10
[2]; 4 = Small round cells, low fluorescence, Carcinoma in situ (n = 11)
  Number of Samples with Cells having Numerical Description by TCPP Fluorescence Microscopy/Number of Samples with Cell Description by Cytmorphology: 0/11
[2]; 4 = Small round cells, low fluorescence, Mild dysplasia (n = 12)
  Number of Samples with Cells having Numerical Description by TCPP Fluorescence Microscopy/Number of Samples with Cell Description by Cytmorphology: 0/12
[2]; 4 = Small round cells, low fluorescence, Moderate dysplasia (n = 9)
  Number of Samples with Cells having Numerical Description by TCPP Fluorescence Microscopy/Number of Samples with Cell Description by Cytmorphology: 0/9
[2]; 4 = Small round cells, low fluorescence, Negative or metaplastic (n = 10)
  Number of Samples with Cells having Numerical Description by TCPP Fluorescence Microscopy/Number of Samples with Cell Description by Cytmorphology: 0/10
[2]; 4 = Small round cells, low fluorescence, Severe dysplasia (n = 8)
  Number of Samples with Cells having Numerical Description by TCPP Fluorescence Microscopy/Number of Samples with Cell Description by Cytmorphology: 0/8
[2]; 5 = Multi-nucleated cells, medium fluorescence, Adenicarcinoma, squamous cell and small cell carcinoma (n = 10)
  Number of Samples with Cells having Numerical Description by TCPP Fluorescence Microscopy/Number of Samples with Cell Description by Cytmorphology: 7/10
[2]; 5 = Multi-nucleated cells, medium fluorescence, Carcinoma in situ (n = 11)
  Number of Samples with Cells having Numerical Description by TCPP Fluorescence Microscopy/Number of Samples with Cell Description by Cytmorphology: 9/11
[2]; 5 = Multi-nucleated cells, medium fluorescence, Mild dysplasia (n = 12)
  Number of Samples with Cells having Numerical Description by TCPP Fluorescence Microscopy/Number of Samples with Cell Description by Cytmorphology: 0/12
[2]; 5 = Multi-nucleated cells, medium fluorescence, Moderate dysplasia (n = 9)
  Number of Samples with Cells having Numerical Description by TCPP Fluorescence Microscopy/Number of Samples with Cell Description by Cytmorphology: 3/9
[2]; 5 = Multi-nucleated cells, medium fluorescence, Negative or metaplastic (n = 10)
  Number of Samples with Cells having Numerical Description by TCPP Fluorescence Microscopy/Number of Samples with Cell Description by Cytmorphology: 0/10
[2]; 5 = Multi-nucleated cells, medium fluorescence, Severe dysplasia (n = 8)
  Number of Samples with Cells having Numerical Description by TCPP Fluorescence Microscopy/Number of Samples with Cell Description by Cytmorphology: 6/8
[2]; 6 = Irregular anisoid cells, low to medium fluorescence, Adenicarcinoma, squamous cell and small cell carcinoma (n = 10)
  Number of Samples with Cells having Numerical Description by TCPP Fluorescence Microscopy/Number of Samples with Cell Description by Cytmorphology: 7/10
[2]; 6 = Irregular anisoid cells, low to medium fluorescence, Carcinoma in situ (n = 11)
  Number of Samples with Cells having Numerical Description by TCPP Fluorescence Microscopy/Number of Samples with Cell Description by Cytmorphology: 10/11
[2]; 6 = Irregular anisoid cells, low to medium fluorescence, Mild dysplasia (n = 12)
  Number of Samples with Cells having Numerical Description by TCPP Fluorescence Microscopy/Number of Samples with Cell Description by Cytmorphology: 0/12
[2]; 6 = Irregular anisoid cells, low to medium fluorescence, Moderate dysplasia (n = 9)
  Number of Samples with Cells having Numerical Description by TCPP Fluorescence Microscopy/Number of Samples with Cell Description by Cytmorphology: 1/9
[2]; 6 = Irregular anisoid cells, low to medium fluorescence, Negative or metaplastic (n = 10)
  Number of Samples with Cells having Numerical Description by TCPP Fluorescence Microscopy/Number of Samples with Cell Description by Cytmorphology: 0/10
[2]; 6 = Irregular anisoid cells, low to medium fluorescence, Severe dysplasia (n = 8)
  Number of Samples with Cells having Numerical Description by TCPP Fluorescence Microscopy/Number of Samples with Cell Description by Cytmorphology: 1/8
[2]; 7 = Cellular clusters, medium to high fluorescence, Adenicarcinoma, squamous cell and small cell carcinoma (n = 10)
  Number of Samples with Cells having Numerical Description by TCPP Fluorescence Microscopy/Number of Samples with Cell Description by Cytmorphology: 3/10
[2]; 7 = Cellular clusters, medium to high fluorescence, Carcinoma in situ (n = 11)
  Number of Samples with Cells having Numerical Description by TCPP Fluorescence Microscopy/Number of Samples with Cell Description by Cytmorphology: 1/11
[2]; 7 = Cellular clusters, medium to high fluorescence, Mild dysplasia (n = 12)
  Number of Samples with Cells having Numerical Description by TCPP Fluorescence Microscopy/Number of Samples with Cell Description by Cytmorphology: 0/12
[2]; 7 = Cellular clusters, medium to high fluorescence, Moderate dysplasia (n = 9)
  Number of Samples with Cells having Numerical Description by TCPP Fluorescence Microscopy/Number of Samples with Cell Description by Cytmorphology: 1/9
[2]; 7 = Cellular clusters, medium to high fluorescence, Negative or metaplastic (n = 10)
  Number of Samples with Cells having Numerical Description by TCPP Fluorescence Microscopy/Number of Samples with Cell Description by Cytmorphology: 0/10
[2]; 7 = Cellular clusters, medium to high fluorescence, Severe dysplasia (n = 8)
  Number of Samples with Cells having Numerical Description by TCPP Fluorescence Microscopy/Number of Samples with Cell Description by Cytmorphology: 0/8
[2]; 8 = Degenerated single cells, medium to high fluorescence, Adenicarcinoma, squamous cell and small cell carcinoma (n = 10)
  Number of Samples with Cells having Numerical Description by TCPP Fluorescence Microscopy/Number of Samples with Cell Description by Cytmorphology: 7/10
[2]; 8 = Degenerated single cells, medium to high fluorescence, Carcinoma in situ (n = 11)
  Number of Samples with Cells having Numerical Description by TCPP Fluorescence Microscopy/Number of Samples with Cell Description by Cytmorphology: 4/11
[2]; 8 = Degenerated single cells, medium to high fluorescence, Mild dysplasia (n = 12)
  Number of Samples with Cells having Numerical Description by TCPP Fluorescence Microscopy/Number of Samples with Cell Description by Cytmorphology: 0/12
[2]; 8 = Degenerated single cells, medium to high fluorescence, Moderate dysplasia (n = 9)
  Number of Samples with Cells having Numerical Description by TCPP Fluorescence Microscopy/Number of Samples with Cell Description by Cytmorphology: 0/9
[2]; 8 = Degenerated single cells, medium to high fluorescence, Negative or metaplastic (n = 10)
  Number of Samples with Cells having Numerical Description by TCPP Fluorescence Microscopy/Number of Samples with Cell Description by Cytmorphology: 0/10
[2]; 8 = Degenerated single cells, medium to high fluorescence, Severe dysplasia (n = 8)
  Number of Samples with Cells having Numerical Description by TCPP Fluorescence Microscopy/Number of Samples with Cell Description by Cytmorphology: 0/8
[2]; 9 = Degenerated cell clusters, medium to high fluorescence, Adenicarcinoma, squamous cell and small cell carcinoma (n = 10)
  Number of Samples with Cells having Numerical Description by TCPP Fluorescence Microscopy/Number of Samples with Cell Description by Cytmorphology: 4/10
[2]; 9 = Degenerated cell clusters, medium to high fluorescence, Carcinoma in situ (n = 11)
  Number of Samples with Cells having Numerical Description by TCPP Fluorescence Microscopy/Number of Samples with Cell Description by Cytmorphology: 1/11
[2]; 9 = Degenerated cell clusters, medium to high fluorescence, Mild dysplasia (n = 12)
  Number of Samples with Cells having Numerical Description by TCPP Fluorescence Microscopy/Number of Samples with Cell Description by Cytmorphology: 0/12
[2]; 9 = Degenerated cell clusters, medium to high fluorescence, Moderate dysplasia (n = 9)
  Number of Samples with Cells having Numerical Description by TCPP Fluorescence Microscopy/Number of Samples with Cell Description by Cytmorphology: 0/9
